Source: patent publication US10047059B2, “Substituted quinoxalines for inhibiting kinase activity” (NEUPHARMA, INC., priority 2012, dated 2018)
pIC50: −log10 of the molar value.

Legend:
A375 cells = assay: Inhibition of cancer cell growth, MTT or MTS assay, A375; type: cell-based; conditions: Homo sapiens, A-375, 72 h incubation
Description: (§1) Inhibition of cell growth by compounds was measured using MTT or MTS assay. Tumor cell lines were purchased from ATCC (American Type Culture Collection, Manassas, Va.). All cell lines were maintained in RPMI 1640 (Hyclone) supplemented with 10% fetal bovine serum (FBS, Hyclone), glutamine (2 mM, Hyclone), and antibiotics (penicillin 100 U/mL and streptomycin 50 μg/mL) at 37° C. in a humidified atmosphere of 5% CO2 in air. Taxol (as a positive control, Sigma) and compounds were dissolved in DMSO (Sigma), and the final concentration of DMSO in the medium was 1%. Tumor cells were plated in 96-well plates at densities of about 2000 (A375) or 4000 (A549 and Colo205) cells/well of a 96-well plate and allowed to adhere/grow for 24 h. They were then treated with various concentrations of drug and incubated for 72 h. For MTT method, medium was then removed by inverting and tapping the plates. 100 μL of MTT (0.5 mg/ml) was added to each well followed by an incubated at 37° C. for 4 h. MTT was then removed and 200 μL of DMSO was added to each well, and the ODs at 570 nm were measured after a 5 second shaking cycle in a 96-well spectrophotometer. For MTS method, 20 μL MTS (CellTiter 96 Aqueous One Solution, Promega) was added to each well followed by an incubated at 37° C. for 2-4 h, solutions were then directly put in a 96-well spectrophotometer, and the ODs at 490 nm were measured.
(§2) All concentrations of compounds were tested in triplicate and controls were averaged over 4 wells. IC50 was calculated by plotting the concentration of compound vs the percentage of inhibition in treated wells using GraphPad Prism 5. […] The scale utilized in Tables 7-9 is as follows: +++ less than 1000 nM; ++ between 1000 nM and 5000 nM; and + greater than 5000 nM. The scale utilized in […]

BRAF V600E = target: T1, BRAF V600E (Homo sapiens, UniProt P15056, V600E); assay: Z'-LYTE kinase inhibition assay against BRAF V600E; type: biochemical; conditions: % inhibition at 1 μM, Z'-LYTE method
T1 construct: purchased Invitrogen
T1 sequence (P15056 whole entry V600E): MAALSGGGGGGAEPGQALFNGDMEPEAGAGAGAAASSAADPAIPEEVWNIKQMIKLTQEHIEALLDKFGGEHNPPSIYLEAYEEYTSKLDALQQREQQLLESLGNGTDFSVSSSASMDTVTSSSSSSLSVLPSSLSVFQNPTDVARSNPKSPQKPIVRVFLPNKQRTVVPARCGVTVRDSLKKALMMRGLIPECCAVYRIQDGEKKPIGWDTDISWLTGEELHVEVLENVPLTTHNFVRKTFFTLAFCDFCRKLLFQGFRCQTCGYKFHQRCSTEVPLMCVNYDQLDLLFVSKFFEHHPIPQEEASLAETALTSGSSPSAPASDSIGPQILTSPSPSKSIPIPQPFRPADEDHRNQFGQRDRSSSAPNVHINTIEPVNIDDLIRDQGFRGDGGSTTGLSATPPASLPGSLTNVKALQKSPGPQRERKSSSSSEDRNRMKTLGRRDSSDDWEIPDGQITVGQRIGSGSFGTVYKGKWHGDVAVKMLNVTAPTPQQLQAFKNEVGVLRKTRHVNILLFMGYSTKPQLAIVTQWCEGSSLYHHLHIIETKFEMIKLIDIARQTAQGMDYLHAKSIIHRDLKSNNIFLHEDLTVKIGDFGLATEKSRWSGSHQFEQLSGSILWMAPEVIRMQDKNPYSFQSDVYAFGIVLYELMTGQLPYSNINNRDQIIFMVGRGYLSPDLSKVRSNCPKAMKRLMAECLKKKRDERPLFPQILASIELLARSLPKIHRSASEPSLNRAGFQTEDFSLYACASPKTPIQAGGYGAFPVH
Description: Inhibitory activities Inhibitory activities of compounds against BRAF, and BRAF V600E were measured by Invitrogen using Z′-LYTE® Method as briefly described in the following. 4× Test compounds are dissolved in 1% DMSO. […] ATP solutions are diluted to a 4×ATP working concentration in Kinase Buffer (50 mM HEPES pH 7.5, 0.01% BRIJ-35, 10 mM MgCl2, 1 mM EGTA). Reaction started by 30-second shaking of mixture consisting of 2.5 μL 4× test compound, […] and 2.5 μL 4×ATP Solution on Bar-coded Corning, low volume NBS, black 384-well plate (Corning Cat. #3676). Then the mixture was incubated for 60-minute at room temperature for the kinase reaction, followed by addition of 5 μL of a 1:1024 dilution of development reagent A and 30-second plate shake. The mixture was then incubated for another 60-minute at room temperature for development reaction. Fluorescence was read by plate reader. IC50 was calculated by plotting the concentration of compound vs the percentage of inhibition in treated wells using GraphPad Prism 5.
Table 2 and 3 show % inhibition at 1 μM of several compounds of the invention against BRAF and BRAF V600E, respectively, using Z′-LYTE® method.
The scale utilized in Table 4 is as follows: +++ less than 100 nM; and ++ greater than 100 nM.

KDR (VEGFR2) = target: T2, KDR (VEGFR2) (Homo sapiens, UniProt P35968); assay: Z'-LYTE kinase inhibition assay against KDR; type: biochemical; conditions: % inhibition at 1 μM, Z'-LYTE method
T2 construct: purchased Invitrogen
T2 sequence (P35968 20-1356): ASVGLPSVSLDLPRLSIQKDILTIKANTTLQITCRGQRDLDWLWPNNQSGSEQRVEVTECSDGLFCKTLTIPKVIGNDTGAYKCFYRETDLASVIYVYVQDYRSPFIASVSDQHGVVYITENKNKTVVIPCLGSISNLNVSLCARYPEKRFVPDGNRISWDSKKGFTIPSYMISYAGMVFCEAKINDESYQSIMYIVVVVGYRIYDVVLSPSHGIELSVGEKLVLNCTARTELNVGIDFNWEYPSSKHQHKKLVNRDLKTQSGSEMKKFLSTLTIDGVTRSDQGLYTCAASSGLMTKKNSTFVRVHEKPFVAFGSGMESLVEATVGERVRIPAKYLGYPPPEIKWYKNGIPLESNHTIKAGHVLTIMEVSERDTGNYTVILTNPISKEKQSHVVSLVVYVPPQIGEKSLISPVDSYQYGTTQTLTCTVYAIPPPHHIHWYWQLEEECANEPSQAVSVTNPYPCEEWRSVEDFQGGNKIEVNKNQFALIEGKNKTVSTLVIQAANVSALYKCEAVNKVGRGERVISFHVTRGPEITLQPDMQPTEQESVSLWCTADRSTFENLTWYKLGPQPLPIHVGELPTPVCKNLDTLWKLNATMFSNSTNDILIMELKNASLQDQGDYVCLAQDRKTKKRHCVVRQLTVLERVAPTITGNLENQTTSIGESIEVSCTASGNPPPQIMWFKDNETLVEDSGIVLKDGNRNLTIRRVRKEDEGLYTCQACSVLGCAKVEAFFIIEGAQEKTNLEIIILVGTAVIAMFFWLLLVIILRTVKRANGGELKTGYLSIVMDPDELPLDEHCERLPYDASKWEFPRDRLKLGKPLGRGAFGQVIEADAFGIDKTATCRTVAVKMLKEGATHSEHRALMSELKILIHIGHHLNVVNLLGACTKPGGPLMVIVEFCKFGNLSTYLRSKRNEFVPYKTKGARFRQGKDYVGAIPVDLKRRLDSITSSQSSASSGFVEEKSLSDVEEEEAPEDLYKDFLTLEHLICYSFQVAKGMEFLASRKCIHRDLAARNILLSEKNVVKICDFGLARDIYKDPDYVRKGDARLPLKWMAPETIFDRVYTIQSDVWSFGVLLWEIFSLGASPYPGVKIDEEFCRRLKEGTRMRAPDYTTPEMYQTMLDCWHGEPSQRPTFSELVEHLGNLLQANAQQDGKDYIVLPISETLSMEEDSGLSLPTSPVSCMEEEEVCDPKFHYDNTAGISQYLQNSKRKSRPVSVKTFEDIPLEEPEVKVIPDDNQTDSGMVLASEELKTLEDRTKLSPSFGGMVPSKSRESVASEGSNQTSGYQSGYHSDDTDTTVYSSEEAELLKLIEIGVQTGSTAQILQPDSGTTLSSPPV
Description: Inhibitory activities of compounds against KDR (VEGFR2) were also measured by Invitrogen using Z′-LYTE® Method as described above with the following modification. The 2×KDR (VEGFR2)/Tyr 01 mixture is prepared in 50 mM HEPES pH 7.5, 0.01% BRIJ-35, 10 mM MgCl2, 1 mM EGTA. The final 10 μL Kinase Reaction consists of 0.5-11.7 ng KDR (VEGFR2) and 2 μM Tyr 01 in 50 mM HEPES pH 7.5, 0.01% BRIJ-35, 10 mM MgCl2, 1 mM EGTA. After the 1 hour Kinase Reaction incubation, 5 μL of a 1:256 dilution of Development Reagent B is added.
The scale utilized in Table 6 is as follows: +++ less than 100 nM; and ++ greater than 100 nM

A549 cells = assay: Inhibition of cancer cell growth, MTT or MTS assay, A549; type: cell-based; conditions: Homo sapiens, 72 h incubation
Description: as §1, §2

O=C(Nc1ccc(C(=O)c2ccc3ncc(N4CCOCC4)nc3c2)c(F)c1)c1cccc(F)c1 [Compound C34, 3-fluoro-N-(3-fluoro-4-(3-morpholinoquinoxaline-6-carbonyl)phenyl)benzamide]
pIC50 (A375 cells): < 5.30

N#Cc1ccc(NC(=O)Nc2ccc(C(=O)c3ccc4ncc(N5CCOCC5)nc4c3)cc2)cc1C(F)(F)F [Compound C15, 1-(4-cyano-3-(trifluoromethyl)phenyl)-3-(4-(3-morpholinoquinoxaline-6-carbonyl)phenyl)urea]
inhibition at 1 µM (BRAF V600E): < 70%
inhibition at 1 µM (KDR (VEGFR2)): 70 to 89%
pIC50 (A375 cells): 5.30 to 6.00
pIC50 (A549 cells): 5.30 to 6.00

O=C(Nc1ccc(C(=O)c2ccc3ncc(C4CCNCC4)nc3c2)cc1)Nc1cccc(C(F)(F)F)c1 [Compound C27, 1-(4-(3-(piperidin-4-yl)quinoxaline-6-carbonyl)phenyl)-3-(3-(trifluoromethyl)phenyl)urea]
inhibition at 1 µM (BRAF V600E): 70 to 89%
inhibition at 1 µM (KDR (VEGFR2)): < 70%
pIC50 (A375 cells): < 5.30
pIC50 (A549 cells): < 5.30

O=C(Nc1ccc(C(=O)c2ccc3ncc(N4CCNCC4)nc3c2)c(F)c1)c1ccc(Cl)cc1 [Compound C40, 4-chloro-N-(3-fluoro-4-(3-(piperazin-1-yl)quinoxaline-6-carbonyl)phenyl)benzamide]
pIC50 (A375 cells): 5.30 to 6.00

N#Cc1cnc2ccc(C(=O)c3ccc(NC(=O)Nc4cccc(C(F)(F)F)c4)cc3F)cc2n1 [Compound C29, 1-(4-(3-cyanoquinoxaline-6-carbonyl)-3-fluorophenyl)-3-(3-(trifluoromethyl)phenyl)urea]
inhibition at 1 µM (BRAF V600E): < 70%
inhibition at 1 µM (KDR (VEGFR2)): < 70%
pIC50 (A375 cells): 5.30 to 6.00
pIC50 (A549 cells): 5.30 to 6.00

O=C(Nc1ccc(F)cc1)Nc1ccc(C(=O)c2ccc3ncc(N4CCOCC4)nc3c2)c(F)c1 [Compound C23, 1-(3-fluoro-4-(3-morpholinoquinoxaline-6-carbonyl)phenyl)-3-(4-fluorophenyl)urea]
inhibition at 1 µM (BRAF V600E): 70 to 89%
inhibition at 1 µM (KDR (VEGFR2)): < 70%
pIC50 (A549 cells): < 5.30

O=C(Nc1ccc(C(=O)c2ccc3ncc(N4CCOCC4)nc3c2)c(F)c1)c1ccc(Cl)c(C(F)(F)F)c1 [Compound C36, 4-chloro-N-(3-fluoro-4-(3-morpholinoquinoxaline-6-carbonyl)phenyl)-3-(trifluoromethyl)benzamide]
pIC50 (A375 cells): < 5.30

O=C(Nc1ccc(C(=O)c2ccc3ncc(N4CCNCC4)nc3c2)c(F)c1)c1cccc(C(F)(F)F)c1 [Compound C42, N-(3-fluoro-4-(3-(piperazin-1-yl)quinoxaline-6-carbonyl)phenyl)-3-(trifluoromethyl)benzamide]
pIC50 (A375 cells): 5.30 to 6.00

Cn1ccc(NC(=O)Nc2ccc(C(=O)c3ccc4ncc(N5CCNCC5)nc4c3)c(F)c2)n1 [Compound C31, 1-(3-fluoro-4-(3-(piperazin-1-yl)quinoxaline-6-carbonyl)phenyl)-3-(1-methyl-1H-pyrazol-3-yl)urea]
inhibition at 1 µM (BRAF V600E): 70 to 89%
inhibition at 1 µM (KDR (VEGFR2)): < 70%
pIC50 (A375 cells): 5.30 to 6.00
pIC50 (A549 cells): < 5.30

O=C(Nc1ccc(C(=O)c2ccc3ncc(N4CCNCC4)nc3c2)c(F)c1)c1cccc(Cl)c1 [Compound C41, 3-chloro-N-(3-fluoro-4-(3-(piperazin-1-yl)quinoxaline-6-carbonyl)phenyl)benzamide]
pIC50 (A375 cells): > 6.00

O=C(Nc1ccc(C(=O)c2ccc3ncc(N4CCNCC4)nc3c2)c(F)c1)c1ccc(Cl)c(C(F)(F)F)c1 [Compound C43, 4-chloro-N-(3-fluoro-4-(3-(piperazin-1-yl)quinoxaline-6-carbonyl)phenyl)-3-(trifluoromethyl)benzamide]
pIC50 (A375 cells): > 6.00

O=C(Nc1ccc(C(=O)c2ccc3ncc(N4CCOCC4)nc3c2)c(F)c1)c1cccc(Cl)c1 [Compound C37, 3-chloro-N-(3-fluoro-4-(3-morpholinoquinoxaline-6-carbonyl)phenyl)benzamide]
pIC50 (A375 cells): < 5.30

O=C(Nc1ccc(C(=O)c2ccc3ncc(N4CCNCC4)nc3c2)c(F)c1)c1cccc(F)c1 [Compound C39, 3-fluoro-N-(3-fluoro-4-(3-(piperazin-1-yl)quinoxaline-6-carbonyl)phenyl)benzamide]
pIC50 (A375 cells): 5.30 to 6.00

O=C(Nc1ccc(C(=O)c2ccc3ncc(N4CCOCC4)nc3c2)cc1)Nc1ccc(F)c(C(F)(F)F)c1 [Compound C06, 1-(4-fluoro-3-(trifluoromethyl)phenyl)-3-(4-(3-morpholinoquinoxaline-6-carbonyl)phenyl)urea]
inhibition at 1 µM (BRAF V600E): < 70%
inhibition at 1 µM (KDR (VEGFR2)): 70 to 89%
pIC50 (A375 cells): 5.30 to 6.00
pIC50 (A549 cells): 5.30 to 6.00

N#Cc1ccc(NC(=O)Nc2ccc(C(=O)c3ccc4ncc(N5CCOCC5)nc4c3)c(F)c2)cc1C(F)(F)F [Compound C18, 1-(4-cyano-3-(trifluoromethyl)phenyl)-3-(3-fluoro-4-(3-morpholinoquinoxaline-6-carbonyl)phenyl)urea]
inhibition at 1 µM (BRAF V600E): 70 to 89%
inhibition at 1 µM (KDR (VEGFR2)): 70 to 89%
pIC50 (A375 cells): 5.30 to 6.00
pIC50 (A549 cells): 5.30 to 6.00

O=C(Nc1cccc(F)c1)Nc1ccc(C(=O)c2ccc3ncc(N4CCOCC4)nc3c2)c(F)c1 [Compound C22, 1-(3-fluoro-4-(3-morpholinoquinoxaline-6-carbonyl)phenyl)-3-(3-fluorophenyl)urea]
inhibition at 1 µM (BRAF V600E): < 70%
inhibition at 1 µM (KDR (VEGFR2)): < 70%
pIC50 (A549 cells): < 5.30

O=C(Nc1ccc(C(=O)c2ccc3ncc(N4CCOCC4)nc3c2)cc1)Nc1ccc(Cl)c(C(F)(F)F)c1 [Compound C07, 1-(4-chloro-3-(trifluoromethyl)phenyl)-3-(4-(3-morpholinoquinoxaline-6-carbonyl)phenyl)urea]
inhibition at 1 µM (BRAF V600E): < 70%
inhibition at 1 µM (KDR (VEGFR2)): 70 to 89%
pIC50 (A375 cells): 5.30 to 6.00
pIC50 (A549 cells): 5.30 to 6.00

N#Cc1cnc2ccc(C(=O)c3ccc(NC(=O)Nc4ccc(Cl)c(C(F)(F)F)c4)cc3F)cc2n1 [Compound C30, 1-(4-chloro-3-(trifluoromethyl)phenyl)-3-(4-(3-cyanoquinoxaline-6-carbonyl)-3-fluorophenyl)urea]
inhibition at 1 µM (BRAF V600E): < 70%
inhibition at 1 µM (KDR (VEGFR2)): < 70%
pIC50 (A549 cells): < 5.30

Cc1cc(NC(=O)Nc2ccc(C(=O)c3ccc4ncc(N5CCNCC5)nc4c3)c(F)c2)no1 [Compound C33, 1-(3-fluoro-4-(3-(piperazin-1-yl)quinoxaline-6-carbonyl)phenyl)-3-(5-methylisoxazol-3-yl)urea]
inhibition at 1 µM (BRAF V600E): > 89%
inhibition at 1 µM (KDR (VEGFR2)): < 70%
pIC50 (A375 cells): 5.30 to 6.00

O=C(Nc1ccc(C(=O)c2ccc3ncc(N4CCOCC4)nc3c2)c(F)c1)c1ccc(Cl)cc1 [Compound C35, 4-chloro-N-(3-fluoro-4-(3-morpholinoquinoxaline-6-carbonyl)phenyl)benzamide]
pIC50 (A375 cells): < 5.30

Cn1cc(NC(=O)Nc2ccc(C(=O)c3ccc4ncc(N5CCNCC5)nc4c3)c(F)c2)cn1 [Compound C32, 1-(3-fluoro-4-(3-(piperazin-1-yl)quinoxaline-6-carbonyl)phenyl)-3-(1-methyl-1H-pyrazol-4-yl)urea]
inhibition at 1 µM (BRAF V600E): 70 to 89%
inhibition at 1 µM (KDR (VEGFR2)): < 70%

O=C(Nc1ccc(C(=O)c2ccc3ncc(N4CCOCC4)nc3c2)c(F)c1)Nc1ccc(Cl)c(C(F)(F)F)c1 [Compound C25]
inhibition at 1 µM (BRAF V600E): < 70%
inhibition at 1 µM (KDR (VEGFR2)): < 70%
pIC50 (A549 cells): 5.30 to 6.00

O=C(Nc1ccc(C(=O)c2ccc3ncc(N4CCOCC4)nc3c2)c(F)c1)c1cccc(C(F)(F)F)c1 [Compound C38, N-(3-fluoro-4-(3-morpholinoquinoxaline-6-carbonyl)phenyl)-3-(trifluoromethyl)benzamide]
pIC50 (A375 cells): 5.30 to 6.00
